Measured values published in ChEMBL document CHEMBL3885881, “DrugMatrix”.

Species on record: Rattus norvegicus
Assay: DrugMatrix - Regimen: Daily Repeat
Format: toxicity, organism-based, Sprague-Dawley
Design: regimen Daily Repeat, gender Male, age 6-8 weeks
Details: in vivo, po, 3 mg/kg, route oral GAVAGE, dose level Low, vehicle .5 % CMC; for ABSOLUTE BASOPHIL / ABSOLUTE EOSINOPHIL / ABSOLUTE LYMPHOCYTE / ABSOLUTE MONOCYTE / ABSOLUTE SEGMENTED NEUTROPHIL / BASOPHIL / EOSINOPHIL / ERYTHROCYTE COUNT / HEMATOCRIT / HEMOGLOBIN / LEUKOCYTE COUNT / LYMPHOCYTE / MEAN CORPUSCULAR HEMOGLOBIN / MEAN CORPUSCULAR HEMOGLOBIN CONCENTRATION / MEAN CORPUSCULAR VOLUME / MONOCYTE / NEUTROPHIL / NUCLEATED RED BLOOD CELLS / PLATELET COUNT: tissue Blood; for ALANINE AMINOTRANSFERASE / ALBUMIN / ALKALINE PHOSPHATASE / ASPARTATE AMINOTRANSFERASE / BLOOD UREA NITROGEN / CARBON DIOXIDE / CHLORIDE / CHOLESTEROL / CREATINE PHOSPHOKINASE / CREATININE / GLUCOSE / LACTATE DEHYDROGENASE / LIPASE / PHOSPHORUS / POTASSIUM / SODIUM / TOTAL BILIRUBIN / TOTAL PROTEIN / URIC ACID: tissue Plasma

C=CC[C@@H]1/C=C(\C)C[C@H](C)C[C@H](OC)[C@H]2O[C@@](O)(C(=O)C(=O)N3CCCC[C@H]3C(=O)O[C@H](/C(C)=C/[C@@H]3CC[C@@H](O)[C@H](OC)C3)[C@H](C)[C@@H](O)CC1=O)[C@H](C)C[C@@H]2OC [TACROLIMUS ANHYDROUS]
ABSOLUTE BASOPHIL (72 h, time 3 day): 0 CELLS/uL | ABSOLUTE EOSINOPHIL (72 h, time 3 day): 115.33 CELLS/uL | ABSOLUTE LYMPHOCYTE (72 h, time 3 day): 12942.67 CELLS/uL | ABSOLUTE MONOCYTE (72 h, time 3 day): 191 CELLS/uL | ABSOLUTE SEGMENTED NEUTROPHIL (72 h, time 3 day): 1684.33 CELLS/uL | BASOPHIL (72 h, time 3 day): 0% | EOSINOPHIL (72 h, time 3 day): 0.67% | ERYTHROCYTE COUNT (72 h, time 3 day): 5.73 x10E6/uL | HEMATOCRIT (72 h, time 3 day): 36.53% | HEMOGLOBIN (72 h, time 3 day): 13.97 G/DL | LEUKOCYTE COUNT (72 h, time 3 day): 14.93 x10E3/uL | LYMPHOCYTE (72 h, time 3 day): 86.67% | MEAN CORPUSCULAR HEMOGLOBIN (72 h, time 3 day): 24.37 pg | MEAN CORPUSCULAR HEMOGLOBIN CONCENTRATION (72 h, time 3 day): 38.27 G/DL | MEAN CORPUSCULAR VOLUME (72 h, time 3 day): 63.77 fL | MONOCYTE (72 h, time 3 day): 1.33% | NEUTROPHIL (72 h, time 3 day): 11.33% | NUCLEATED RED BLOOD CELLS (72 h, time 3 day): 0 /100WBC | PLATELET COUNT (72 h, time 3 day): 1252.33 x10E3/uL | ALANINE AMINOTRANSFERASE (72 h, time 3 day): 50.67 u/L | ALBUMIN (72 h, time 3 day): 4.1 G/DL | ALKALINE PHOSPHATASE (72 h, time 3 day): 348.33 u/L | ASPARTATE AMINOTRANSFERASE (72 h, time 3 day): 75.67 u/L | BLOOD UREA NITROGEN (72 h, time 3 day): 16.33 mg/dL | CARBON DIOXIDE (72 h, time 3 day): 31.67 mmol/L | CHLORIDE (72 h, time 3 day): 99.33 MEQ/L | CHOLESTEROL (72 h, time 3 day): 79 mg/dL | CREATINE PHOSPHOKINASE (72 h, time 3 day): 194.33 u/L | CREATININE (72 h, time 3 day): 0.26 mg/dL | GLUCOSE (72 h, time 3 day): 149.33 mg/dL | LACTATE DEHYDROGENASE (72 h, time 3 day): 133.33 u/L | LIPASE (72 h, time 3 day): 9.33 u/L | PHOSPHORUS (72 h, time 3 day): 12.63 mg/dL | POTASSIUM (72 h, time 3 day): 6.77 MEQ/L | SODIUM (72 h, time 3 day): 144.97 MEQ/L | TOTAL BILIRUBIN (72 h, time 3 day): 0.2 mg/dL | TOTAL PROTEIN (72 h, time 3 day): 5.83 G/DL | URIC ACID (72 h, time 3 day): 1.67 mg/dL | ABSOLUTE BASOPHIL (120 h, time 5 day): 0 CELLS/uL | ABSOLUTE EOSINOPHIL (120 h, time 5 day): 0 CELLS/uL | ABSOLUTE LYMPHOCYTE (120 h, time 5 day): 15415.33 CELLS/uL | ABSOLUTE MONOCYTE (120 h, time 5 day): 188 CELLS/uL | ABSOLUTE SEGMENTED NEUTROPHIL (120 h, time 5 day): 1663.33 CELLS/uL | BASOPHIL (120 h, time 5 day): 0% | EOSINOPHIL (120 h, time 5 day): 0% | ERYTHROCYTE COUNT (120 h, time 5 day): 5.95 x10E6/uL | HEMATOCRIT (120 h, time 5 day): 36.57% | HEMOGLOBIN (120 h, time 5 day): 14.1 G/DL | LEUKOCYTE COUNT (120 h, time 5 day): 17.27 x10E3/uL | LYMPHOCYTE (120 h, time 5 day): 89.33% | MEAN CORPUSCULAR HEMOGLOBIN (120 h, time 5 day): 23.77 pg | MEAN CORPUSCULAR HEMOGLOBIN CONCENTRATION (120 h, time 5 day): 38.57 G/DL | MEAN CORPUSCULAR VOLUME (120 h, time 5 day): 61.53 fL | MONOCYTE (120 h, time 5 day): 1% | NEUTROPHIL (120 h, time 5 day): 9.67% | NUCLEATED RED BLOOD CELLS (120 h, time 5 day): 0 /100WBC | PLATELET COUNT (120 h, time 5 day): 1336 x10E3/uL | ALANINE AMINOTRANSFERASE (120 h, time 5 day): 51.33 u/L | ALBUMIN (120 h, time 5 day): 4.23 G/DL | ALKALINE PHOSPHATASE (120 h, time 5 day): 303 u/L | ASPARTATE AMINOTRANSFERASE (120 h, time 5 day): 80 u/L | BLOOD UREA NITROGEN (120 h, time 5 day): 17 mg/dL | CARBON DIOXIDE (120 h, time 5 day): 27.67 mmol/L | CHLORIDE (120 h, time 5 day): 101.67 MEQ/L | CHOLESTEROL (120 h, time 5 day): 81 mg/dL | CREATINE PHOSPHOKINASE (120 h, time 5 day): 231 u/L | CREATININE (120 h, time 5 day): 0.2 mg/dL | GLUCOSE (120 h, time 5 day): 164 mg/dL | LACTATE DEHYDROGENASE (120 h, time 5 day): 171.67 u/L | LIPASE (120 h, time 5 day): 9.33 u/L | PHOSPHORUS (120 h, time 5 day): 13.2 mg/dL | POTASSIUM (120 h, time 5 day): 6.36 MEQ/L | SODIUM (120 h, time 5 day): 144.37 MEQ/L | TOTAL BILIRUBIN (120 h, time 5 day): 0.2 mg/dL | TOTAL PROTEIN (120 h, time 5 day): 6.13 G/DL | URIC ACID (120 h, time 5 day): 1.73 mg/dL
